Reference: ChEMBL document CHEMBL6127044, “An insight into G-quadruplexes: Identification and potential therapeutic targets in livestock viruses” (Eur J Med Chem, 2024)

Test system: SARS-CoV-2
Assay: Antiviral activity against SARS-CoV-2 Wuhan 5-2N variant infected in African green monkey Vero E6 cells measured 3 days post infection by WST-8 assay
Type: functional, organism-based
Conditions: Severe acute respiratory syndrome coronavirus 2, Wuhan 5-2N, Vero C1008, 72 h

## CCc1c(C)c2cc3nc(cc4nc(cc5c(CC)c(C)c(cc1[nH]2)n5C)C(C)=C4CCC(=O)O)C(CCC(=O)O)=C3C
  EC50: 1.16 nM
